Measured values: US10005769B2, “2,3-dihydrobenzofuran-5YL compounds as DYRK kinase inhibitors” (4SC DISCOVERY GMBH, priority 2013, dated 2018)

Experiments:
DYRK1B = DYRK1B (Homo sapiens (Human), UniProt Q9Y463); assay: DYRK1B Kinase Assay (33P ATP, DYRKtide substrate, Reaction Biology Corp.); type: biochemical; settings: 0.3 nM DYRK1B, 20 μM DYRKtide, 10 μM ATP, 25° C., 120 min
Protocol: The assay was carried out by Reaction Biology Corp., […], Pa., USA according to specifications by Reaction Biology Corp., as detailed herein below and further described in Anastassiadis et al., Nature Biotechnology, 29 (2011) 1039-1045. The substrate DYRKtide (synthetic peptide RRRFRPASPLRGPPK) was dissolved in freshly prepared Base Reaction Buffer (20 mM Hepes (pH 7.5), 10 mM MgCl2, 1 mM EGTA, 0.02% Brij35, 0.02 mg/ml BSA, 0.1 mM Na3VO4, 2 mM DTT, 1% DMSO) at a concentration of 20 μM. DYRK1B was added to the substrate solution in a concentration of 0.3 nM and gently mixed. Dilution series of the compounds according to the present invention in DMSO were prepared. Each dilution was added to a batch of the above reaction mix, followed 20 min later by addition of a mixture of ATP and ^33P ATP (specific activity 0.01 μCi/μl final) to a final concentration of 10 μM. Reactions were carried out at 25° C. for 120 min, followed by spotting the reactions onto P81 ion exchange filter paper. Unbound phosphate was removed by extensive washing of the filters in 0.75% phosphoric acid. […] IC50 values and curve fits were obtained using Prism (Graph Pad Software). DYRK1B used in the above assays are further described in the below table: [table] Exemplary compound dilution series, final concentrations of compound in the assay vessel; the individual concentrations and the range of concentrations covered by the dilution series may differ for each compound, as long as enough data points are obtained to determine the compound's IC50: DYRK 1[…].

[1] = system: Hedgehog signaling pathway (Gli Reporter - NIH3T3 cell line); assay: Hedgehog Reporter Assay (Gli-Reporter, luciferase, mSHH stimulated); type: cell-based, murine; settings: Mus musculus; Gli Reporter NIH3T3 cells, 1 μg/ml mSHH, 24 h
Protocol: In order to investigate the potency of test compounds to inhibit the Hedgehog signaling pathway, a Gli-Reporter assay was performed. The “Gli Reporter-NIH3T3” cell line contains the firefly luciferase gene under the control of Gli responsive elements stably integrated into murine NIH3T3 cells (cells purchased from AMS Biotechnology ltd., 184 Milton Park, Abingdon OX14 4SE, U.K.). The luciferase expression correlates with activation of the hedgehog signaling pathway. This cell line is validated for its response to stimulation with murine Sonic Hedgehog and to treatment with inhibitors of the hedgehog signaling pathway. A multiplexed viability assay was used to discriminate inhibition on the pathway activity from cell toxicity. Growth Medium: DMEM (Dulbecco's Modified Eagle Medium); 10% Fetal Calf Serum; 1% Penicillin/Streptomycin; 500 μg/ml Geneticin (G418 Stock 50 mg/ml). Assay Medium: Opti-MEM® Reduced Serum Medium; 0.5% Calf Serum; 1% non-essential amino acids; 1 mM Na-pyruvate; 10 mM HEPES; 1% Penicillin/Streptomycin. 25,000 cells per well were seeded into a white 96 well plate in 100 μl growth medium and incubated over night at 37° C. and 5% CO2. After removing the supernatant the test compounds and controls were added in different concentrations in a final volume of 45 μl and incubated for 1 h at 37° C. and 5% CO2. For the stimulation of the Hedgehog pathway 5 μl of 10 μg/ml concentrated murine SHH (or mSHH; murine sonic hedgehog protein) was added to the cells. A final concentration of 1 μg/ml mSHH and 0.1% DMSO was reached per well. After incubation for 24 h at 37° C. the cells were investigated for viability and reporter activity. Viability: For the determination of the viability of the treated cells the CellTiter-FluorTM Kit from Promega comprising the fluorogenic, cell-permeant peptide substrate ([…]-aminofluorocoumarin GF-AFC was used. Roughly, only proteases of viable cells are able to cleave the GF-AFC. By this cleavage the fluorescent AFC is set free and can be detected in a fluorescence reader. For this assay 10 μl of GF-AFC substrate (CellTiter-FluorTM, Promega #G6082) was diluted in 2 ml assay buffer from the CellTiter-FluorTM Kit and 10 μl of this dilution was added per well to the cells and incubated for 30 min at 37° C. The fluorescence was measured with an excitation of 380-400 nm and an emission of 505 nm. Reporter activity: The firefly luciferase reporter activity was detected with the ONE-GloTM Luciferase Assay System from Promega. For this assay 50 μl ONE-Glo luciferase reagent (Promega #E6120, contains cell lysis buffer and luciferin) was added to each well and incubated at room temperature for 5 min. Luminescence was detected in a plate reader and served as a measure for reporter activity.

[2] = system: L3.6pl human metastatic pancreatic adenocarcinoma cells; assay: Xenograft assay with L3.6pl cancer cells; type: in vivo, Foxn1nu/nu nude mice; settings: 100 mg/kg/day p.o. daily
Protocol: The x-axis reflects the time [in days], while the y-axis reflects the tumor volume [in mm^3]. A xenograft assay with L3.6pl cancer cells was prepared as follows: 1×10^5 L3.6pl (Bruns et al., 1999) human metastatic pancreatic adenocarcinoma cells in 25% Matrigel (BD Biosciences, NJ, USA) were injected subcutaneously into the lower flanks of Foxn1nu/nu nude mice (Charles River Laboratories, USA). The compound of example 5 was administered p.o. daily with 100 mg/kg/day, dissolved in a mixture of 20% Glycofurol 75, 20% Oleic acid and 60% Olive oil; administration was started at the same day of injection of tumor cells. As a negative control, separate aminals were administered solvent vehicle without active compound. The tumor volume was measured with a caliper and calculated according to the formula [4/3×π×(length/2)×(width/2)×(height/2). Results are shown in FIG. 1, the p value was <0.01.

DYRK1B, sequence (Q9Y463 whole entry): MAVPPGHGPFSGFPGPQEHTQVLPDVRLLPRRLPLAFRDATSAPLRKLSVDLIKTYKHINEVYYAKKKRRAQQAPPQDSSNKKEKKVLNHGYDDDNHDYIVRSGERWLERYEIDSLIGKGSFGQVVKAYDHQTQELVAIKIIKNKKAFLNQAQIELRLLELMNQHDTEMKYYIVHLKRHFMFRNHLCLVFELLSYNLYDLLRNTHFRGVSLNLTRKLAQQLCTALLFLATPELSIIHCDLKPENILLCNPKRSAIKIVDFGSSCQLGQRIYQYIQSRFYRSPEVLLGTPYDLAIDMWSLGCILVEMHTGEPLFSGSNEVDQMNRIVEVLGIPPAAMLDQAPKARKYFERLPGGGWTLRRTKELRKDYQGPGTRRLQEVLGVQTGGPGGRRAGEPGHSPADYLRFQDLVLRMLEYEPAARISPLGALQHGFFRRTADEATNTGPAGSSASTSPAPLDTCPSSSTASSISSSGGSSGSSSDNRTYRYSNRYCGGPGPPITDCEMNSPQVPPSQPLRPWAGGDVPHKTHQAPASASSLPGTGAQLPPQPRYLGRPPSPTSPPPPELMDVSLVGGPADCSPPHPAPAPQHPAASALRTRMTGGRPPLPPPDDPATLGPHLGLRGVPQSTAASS

Row | SMILES | IC50 (DYRK1B) [nM] | animals' weight over the course of the experiment [2] | IC50 [1] [nM]
1 | O=C(Nc1nc2cc(C(F)(F)F)ccc2[nH]1)c1csc(-c2ccc3c(c2)CCO3)n1 [Compound 5, 2-(2,3-Dihydrobenzofuran-5-yl)-N-(5-(trifluoromethyl)-1H-benzo[d]imidazol-2-yl)thiazole-4-carboxamide] | 90.9 | essentially unchanged | 1000 to 3000
2 | COc1cccc(-c2c[nH]c(NC(=O)c3csc(-c4ccc5c(c4)CCO5)n3)n2)c1 [Compound 13, 2-(2,3-Dihydrobenzofuran-5-yl)-N-(4-(3-methoxyphenyl)-1H-imidazol-2-yl)thiazole-4-carboxamide] | 111 | – | 1000 to 3000
3 | O=C(Nc1nc2cc(OC(F)(F)F)ccc2[nH]1)c1csc(-c2ccc3c(c2)CCO3)n1 [Compound 14, 2-(2,3-Dihydrobenzofuran-5-yl)-N-(6-(trifluoromethoxy)-1H-benzo[d]imidazol-2-yl)thiazole-4-carboxamide] | 29.4 | – | 1000 to 3000
4 | O=C(Nc1ccccn1)c1csc(-c2ccc3c(c2)CCO3)n1 [Compound 17, 2-(2,3-Dihydrobenzofuran-5-yl)-N-(pyridin-2-yl)thiazole-4-carboxamide] | 29.4 | – | 3000 to 10000
5 | CNC(=O)c1n[nH]c(NC(=O)c2csc(-c3ccc4c(c3)CCO4)n2)n1 [Compound 19, 2-(2,3-Dihydrobenzofuran-5-yl)-N-(3-(methylcarbamoyl)-1H-1,2,4-triazol-5-yl)thiazole-4-carboxamide] | 9.68 | – | 1000 to 3000
6 | O=C(Nc1nc2cc(C(=O)N3CCCC3)ccc2[nH]1)c1csc(-c2ccc3c(c2)CCO3)n1 [Compound 22, 2-(2,3-Dihydrobenzofuran-5-yl)-N-(5-(pyrrolidine-1-carbonyl)-1H-benzo[d]imidazol-2-yl)thiazole-4-carboxamide] | 0.852 | – | < 1000
7 | COCCNC(=O)c1ccc2[nH]c(NC(=O)c3csc(-c4ccc5c(c4)CCO5)n3)nc2c1 [Compound 23, 2-(2,3-Dihydrobenzofuran-5-yl)-N-(5-((2-methoxyethyl)carbamoyl)-1H-benzo[d]imidazol-2-yl)thiazole-4-carboxamide] | 0.699 | – | < 1000
8 | O=C(Nc1nc(C(=O)NC2CC2)n[nH]1)c1csc(-c2ccc3c(c2)CCO3)n1 [Compound 25, N-(3-(Cyclopropylcarbamoyl)-1H-1,2,4-triazol-5-yl)-2-(2,3-dihydrobenzofuran-5-yl)thiazole-4-carboxamide] | 3.51 | – | 1000 to 3000
9 | O=C(Nc1nnc(C(=O)N2CCOCC2)[nH]1)c1csc(-c2ccc3c(c2)CCO3)n1 [Compound 26, 2-(2,3-Dihydrobenzofuran-5-yl)-N-(5-(morpholine-4-carbonyl)-4H-1,2,4-triazol-3-yl)thiazole-4-carboxamide] | 85 | – | 3000 to 10000

Now from value to compound, other results behind:

Row | IC50 (DYRK1B) [nM] | animals' weight over the course of the experiment [2] | SMILES | IC50 [1] [nM]
10 | 49.8 | – | CN1CCN(C(=O)c2nnc(NC(=O)c3csc(-c4ccc5c(c4)CCO5)n3)[nH]2)CC1 [Compound 27, 2-(2,3-Dihydrobenzofuran-5-yl)-N-(5-(4-methylpiperazine-1-carbonyl)-4H-1,2,4-triazol-3-yl)thiazole-4-carboxamide] | 3000 to 10000
11 | 47.1 | – | O=C(Nc1nnc(C(=O)N2CCCC2)[nH]1)c1csc(-c2ccc3c(c2)CCO3)n1 [Compound 28, 2-(2,3-Dihydrobenzofuran-5-yl)-N-(5-(pyrrolidine-1-carbonyl)-4H-1,2,4-triazol-3-yl)thiazole-4-carboxamide] | 3000 to 10000
12 | 72 | – | CN(C)C(=O)c1n[nH]c(NC(=O)c2csc(-c3ccc4c(c3)CCO4)n2)n1 [Compound 29, 2-(2,3-Dihydrobenzofuran-5-yl)-N-(5-(dimethylcarbamoyl)-4H-1,2,4-triazol-3-yl)thiazole-4-carboxamide] | 3000 to 10000
13 | 1350 | – | O=C(Nc1nc(SCc2ccccc2)n[nH]1)c1csc(-c2ccc3c(c2)CCO3)n1 [Compound 32, N-(3-(Benzylthio)-1H-1,2,4-triazol-5-yl)-2-(2,3-dihydrobenzofuran-5-yl)thiazole-4-carboxamide] | 3000 to 10000
14 | < 0.5 | – | O=C(NCC1CCCO1)c1ccc2[nH]c(NC(=O)c3csc(-c4ccc5c(c4)CCO5)n3)nc2c1 (stereo not drawn) [Compound 35, 2-(2,3-Dihydrobenzofuran-5-yl)-N-(5-(((tetrahydrofuran-2-yl)methyl)carbamoyl)-1H-benzo[d]imidazol-2-yl)thiazole-4-carboxamide] | < 1000
15 | 19.5 | – | CN1CCN(c2ccc3nc(NC(=O)c4csc(-c5ccc6c(c5)CCO6)n4)sc3c2)CC1 [Compound 41, 2-(2,3-Dihydrobenzofuran-5-yl)-N-(6-(4-methylpiperazin-1-yl)benzo[d]thiazol-2-yl)thiazole-4-carboxamide] | 3000 to 10000
16 | 60.1 | – | Cc1n[nH]c(NC(=O)c2csc(-c3ccc4c(c3)CCO4)n2)n1 [Compound 44, 2-(2,3-Dihydrobenzofuran-5-yl)-N-(3-methyl-1H-1,2,4-triazol-5-yl)thiazole-4-carboxamide] | 3000 to 10000
17 | 2.81 | – | O=C(Nc1nc(-c2cccnc2)n[nH]1)c1csc(-c2ccc3c(c2)CCO3)n1 [Compound 45, 2-(2,3-Dihydrobenzofuran-5-yl)-N-(3-(pyridin-3-yl)-1H-1,2,4-triazol-5-yl)thiazole-4-carboxamide] | 1000 to 3000
18 | 15.3 | – | O=C(Nc1nc(-c2ccco2)n[nH]1)c1csc(-c2ccc3c(c2)CCO3)n1 [Compound 46, 2-(2,3-Dihydrobenzofuran-5-yl)-N-(3-(furan-2-yl)-1H-1,2,4-triazol-5-yl)thiazole-4-carboxamide] | 3000 to 10000
19 | 2.17 | – | CCN1CCN(C(=O)c2ccc3[nH]c(NC(=O)c4csc(-c5ccc6c(c5)CCO6)n4)nc3c2)CC1 [Compound 47, 2-(2,3-Dihydrobenzofuran-5-yl)-N-(5-(4-ethylpiperazine-1-carbonyl)-1H-benzo[d]imidazol-2-yl)thiazole-4-carboxamide] | < 1000
